Reference: US12662451B2, “Chemical compounds and uses thereof” (GLAXOSMITHKLINE INTELLECTUAL PROPERTY (NO.4) LIMITED, priority 2023, dated 2026)
Where a name gives a salt, the structure may show the parent alone.

Key:
[1] = target: T1, recombinant full-length WRN protein (1-1432) (Homo sapiens, UniProt Q14191); test: WRN unwinding activity, fluorogenic 384-well assay (Example A); format: biochemical; details: WRN unwinding activity, 4 hr; Table 2; read-out: 4 hr UNW pIC50 (converted)
T1 construct: recombinant full-length WRN protein (1-1432)
How it was run: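 Read-out is end-point unwinding of a fluorophore/quencher duplex (ex 525, em 598 nm) after 60 min with 200 μM ATP and 12 nM DNA (2× stocks), EDTA stop. Compound first sat 4 h with 200 pM WRN (2× stock) in pH 8.0 Tris buffer; four-parameter fit gives pIC50.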

[2] = tested on: SW48 human colorectal cancer cells (MSI-H cancer cells); test: SW48 cell viability, CellTiter-Glo, 120 hours (Example B); details: Table 2; for CC50: Homo sapiens, SW48, 120 h, read-out: SW48 pCC50, SW48 cell viability, 120 hours incubation (converted); for SW48 pCC50: SW48 cell viability, 120 hours incubation

T1 sequence (Q14191 whole entry): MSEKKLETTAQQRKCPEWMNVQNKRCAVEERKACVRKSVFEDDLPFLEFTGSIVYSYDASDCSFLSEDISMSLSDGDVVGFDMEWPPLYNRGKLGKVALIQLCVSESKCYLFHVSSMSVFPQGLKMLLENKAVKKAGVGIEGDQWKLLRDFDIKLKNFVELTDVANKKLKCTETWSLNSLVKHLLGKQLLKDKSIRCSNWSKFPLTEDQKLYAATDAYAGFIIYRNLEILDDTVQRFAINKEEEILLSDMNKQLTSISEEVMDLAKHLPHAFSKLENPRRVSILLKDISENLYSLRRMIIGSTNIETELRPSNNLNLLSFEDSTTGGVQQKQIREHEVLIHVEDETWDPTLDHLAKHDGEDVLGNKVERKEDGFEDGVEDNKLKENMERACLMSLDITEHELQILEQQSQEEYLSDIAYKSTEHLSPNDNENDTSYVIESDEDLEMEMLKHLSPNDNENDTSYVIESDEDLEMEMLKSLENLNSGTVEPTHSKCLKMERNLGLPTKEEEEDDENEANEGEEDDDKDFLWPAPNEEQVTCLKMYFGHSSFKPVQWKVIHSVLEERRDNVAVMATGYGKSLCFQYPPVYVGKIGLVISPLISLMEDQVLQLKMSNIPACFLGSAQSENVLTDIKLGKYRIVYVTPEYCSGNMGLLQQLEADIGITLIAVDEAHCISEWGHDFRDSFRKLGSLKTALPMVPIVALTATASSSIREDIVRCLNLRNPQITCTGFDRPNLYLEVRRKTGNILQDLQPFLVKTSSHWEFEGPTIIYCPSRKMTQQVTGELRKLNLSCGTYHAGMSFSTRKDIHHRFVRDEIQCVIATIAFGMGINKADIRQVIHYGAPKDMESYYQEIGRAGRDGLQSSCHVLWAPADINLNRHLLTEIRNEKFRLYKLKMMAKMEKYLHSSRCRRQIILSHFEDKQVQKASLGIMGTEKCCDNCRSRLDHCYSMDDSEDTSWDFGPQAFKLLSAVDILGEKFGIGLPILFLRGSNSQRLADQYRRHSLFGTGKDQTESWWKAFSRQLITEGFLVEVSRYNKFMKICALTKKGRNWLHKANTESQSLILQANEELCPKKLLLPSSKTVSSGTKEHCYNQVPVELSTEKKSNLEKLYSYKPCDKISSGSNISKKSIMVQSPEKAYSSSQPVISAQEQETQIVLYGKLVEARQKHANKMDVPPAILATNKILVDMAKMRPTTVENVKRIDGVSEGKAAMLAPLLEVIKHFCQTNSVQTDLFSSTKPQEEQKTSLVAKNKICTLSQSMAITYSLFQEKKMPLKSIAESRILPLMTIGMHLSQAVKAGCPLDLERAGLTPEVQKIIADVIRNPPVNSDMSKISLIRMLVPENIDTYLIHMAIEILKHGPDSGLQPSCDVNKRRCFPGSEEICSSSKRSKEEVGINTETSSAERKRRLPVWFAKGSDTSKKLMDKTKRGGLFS

Row | Structure (SMILES) | IC50 [1] [nM] | CC50 [2] [nM] | SW48 pCC50 [2]
1 | Cc1nc2cc(S(=O)(=O)N(C)c3ccc([C@H]4CCC[C@H](C(=O)Nc5ccc(C(C)C)cc5)[C@@H]4C(=O)O)cc3)ccc2n1C (single isomer, unassigned) [Example 73] | 1.26 | 3980 | 
2 | Cc1nc2cc(S(=O)(=O)N(C)c3ccc([C@H]4CCC[C@@H](C(=O)Nc5ccc(C(C)C)cc5)[C@H]4C(=O)O)cc3)ccc2n1C (single isomer, unassigned) [Example 77] | 3.98 | 3980 | 
3 | Cc1nc2cc(S(=O)(=O)N(C)c3ccc([C@H]4CCC[C@@H](C(=O)Nc5ccc(C(C)C)cc5)[C@@H]4C(=O)O)cc3)ccc2n1C (single isomer, unassigned) [Example 80] | 1.58 | 501 | 
4 | CN(c1ccc([C@H]2CCC[C@@H](C(=O)Nc3ccc(C(F)(F)F)cc3F)[C@@H]2C(=O)O)cc1)S(=O)(=O)c1ccc2[nH]cnc2c1 (single isomer, unassigned) [Example 86] | 1.58 | 2510 | 
5 | Cc1nc2cc(S(=O)(=O)N(C)c3cnc([C@H]4CCC[C@@H](C(=O)Nc5ccc(C(F)(F)F)cc5F)[C@@H]4C(=O)O)cn3)ccc2n1C (single isomer, unassigned) [Example 164] | 1.26 | 2510 | 
6 | CN1CCC[C@H](c2cccc(S(=O)(=O)N(C)c3ccc([C@H]4CCC[C@@H](COc5ccc(C(F)(F)F)cc5)[C@@H]4C(=O)O)cc3)c2)C1 (single isomer, unassigned) [Example 217, rel-(1R,2S,6R)-2-(4-((N-methyl-3-((S*)-1-methylpiperidin-3-yl)phenyl)sulfonamido)phenyl)-6-((4-(trifluoromethyl)phenoxy)methyl)cyclohexane-1-carboxylic acid] | 126 | 10000 | 
7 | CN1CCC[C@@H](c2cccc(S(=O)(=O)N(C)c3ccc([C@H]4CCC[C@@H](COc5ccc(C(F)(F)F)cc5)[C@@H]4C(=O)O)cc3)c2)C1 (single isomer, unassigned) [Example 218, rel-(1R,2S,6R)-2-(4-((N-methyl-3-((R*)-1-methylpiperidin-3-yl)phenyl)sulfonamido)phenyl)-6-((4-(trifluoromethyl)phenoxy)methyl)cyclohexane-1-carboxylic acid] | 39.8 | 15800 | 
8 | CCO[C@@H]1C[C@H](COc2ccc(C(F)(F)F)cc2)[C@@H](C(=O)O)[C@H](c2ccc(N(C)S(=O)(=O)c3ccc4c(c3)nc(C)n4C)cc2)C1 (single isomer, unassigned) [Example 220] | 316 | 15800 | 
9 | O=C(O)[C@@H]1[C@@H](C(=O)Nc2ccc(C(F)(F)F)cc2F)CCC[C@H]1c1ccc(NS(=O)(=O)c2ccc3[nH]cnc3c2)cc1 (single isomer, unassigned) [Example 225] | 0.251 | 7940 | 
10 | N#Cc1cc([C@H]2CCC[C@@H](C(=O)Nc3ccc(C(F)(F)F)cc3F)[C@@H]2C(=O)O)ccc1Br (single isomer, unassigned) [Example 230] | 100 | 7940 | 
11 | Cc1nc2cc(S(=O)(=O)N3CCOc4cc([C@H]5CCC[C@@H](C(=O)Nc6ccc(C(F)(F)F)cc6F)[C@@H]5C(=O)O)ccc43)ccc2n1C (single isomer, unassigned) [Example 241] | 5.01 | 1260 | 
12 | Cc1nc2cc(S(=O)(=O)N(C)c3ccc([C@H]4CCC[C@@H](C(=O)Nc5ccc(C(F)(F)F)cc5F)[C@@H]4C(=O)O)cc3)cc([C@@H]3CCCNC3)c2n1C (single isomer, unassigned) [Example 268, (1R,2R,6S)-2-((2-fluoro-4-(trifluoromethyl)phenyl)carbamoyl)-6-(4-((N,1,2-trimethyl-7-((S*)-piperidin-3-yl)-1H-benzo[d]imidazole)-5-sulfonamido)phenyl)cyclohexane-1-carboxylic acid hydrochloride] | 0.794 | 15800 | 
13 | Cc1nc2cc(S(=O)(=O)N(C)c3ccc([C@@H]4C[C@H](OCC5CC6CCC(C5)O6)C[C@H](C(=O)Nc5ccc(C(F)(F)F)cc5F)[C@H]4C(=O)O)cc3)ccc2n1C (single isomer, unassigned) [Example 359] | 1580 | 12600 | 

Continued, in another order:

Row | IC50 [1] [nM] | Structure (SMILES) | CC50 [2] [nM] | SW48 pCC50 [2]
14 | 251 | Cc1nc2cc(S(=O)(=O)N(C)c3ccc([C@H]4C[C@H](N5CCCCC5)C[C@@H](C(=O)Nc5ccc(C(F)(F)F)cc5F)[C@@H]4C(=O)O)cc3)ccc2n1C (relative stereo) [Example 349, rel-(1R,2R,4S,6S)-2-((2-fluoro-4-(trifluoromethyl)phenyl)carbamoyl)-4-(piperidin-1-yl)-6-(4-((N,1,2-trimethyl-1H-benzo[d]imidazole)-5-sulfonamido)phenyl)cyclohexane-1-carboxylic acid] | 12600 | 
15 | 100 | Cc1nc2cc(S(=O)(=O)N(C)c3ccc([C@H]4C[C@@H](N5CC6(F)CC5C6)C[C@@H](C(=O)Nc5ccc(C(F)(F)F)cc5F)[C@@H]4C(=O)O)cc3)ccc2n1C (relative stereo) [Example 398, rel-(1R,2R,4R,6S)-2-((2-fluoro-4-(trifluoromethyl)phenyl)carbamoyl)-4-(4-fluoro-2-azabicyclo[2.1.1]hexan-2-yl)-6-(4-((N,1,2-trimethyl-1H-benzo[d]imidazole)-5-sulfonamido)phenyl)cyclohexane-1-carboxylic acid] | 25100 | 
16 | 158 | Cc1nc2cc(S(=O)(=O)N(C)c3ccc([C@H]4CCC[C@@H](C(=O)Nc5ccc(C(F)(F)F)cc5F)[C@@H]4C(=O)O)cc3)ccc2n1C (single isomer, unassigned) [Example 84] |  | 5.3
17 | 1.58 | Cc1nc2cc(S(=O)(=O)N(C)c3ccc([C@H]4CCC[C@@H](C(=O)Nc5ccc(C(F)(F)F)cc5F)[C@@H]4C(=O)O)cc3)ccc2[nH]1 (single isomer, unassigned) [Example 92] | 794 | 
18 | 1.58 | Cc1nc2cc(S(=O)(=O)N(C)c3ccc([C@H]4C[C@@H](O)C[C@@H](C(=O)Nc5ccc(C(F)(F)F)cc5F)[C@@H]4C(=O)O)cc3)ccc2n1C (single isomer, unassigned) [Example 145] | 1260 | 
19 | 79.4 | [2H]C([2H])([2H])O[C@@H]1C[C@H](c2ccc(N(C)S(=O)(=O)c3ccc4c(c3)nc(C)n4C)cc2)[C@@H](C(=O)O)[C@H](C(=O)Nc2ccc(C(F)(F)F)cc2F)C1 (single isomer, unassigned) [Example 147] | 12600 | 
20 | 10 | Cc1nc2cc(S(=O)(=O)N(C)c3ccc([C@H]4C[C@@H](Oc5ccccc5)C[C@@H](C(=O)Nc5ccc(C(F)(F)F)cc5F)[C@@H]4C(=O)O)cc3)ccc2n1C (single isomer, unassigned) [Example 152] | 2000 | 
21 | 50.1 | Cc1nc2cc(S(=O)(=O)N(C)c3ccc([C@@H]4CCC[C@H](C(=O)Nc5ccc(C(F)(F)F)cc5F)[C@H]4C(=O)O)nc3)ccc2n1C (single isomer, unassigned) [Example 160] | 15800 | 
22 | 2 | Cc1nc2cc(S(=O)(=O)N(C)c3ccc([C@@H]4CCC[C@H](C(=O)Nc5ccc(C(F)(F)F)cc5F)[C@H]4C(=O)O)cc3C#N)ccc2n1C (single isomer, unassigned) [Example 162] | 3160 | 
23 | 631 | Cc1nc2cc(S(=O)(=O)N(C)c3ccc([C@@H]4CC[C@H](C)[C@H](C(=O)Nc5ccc(C(F)(F)F)cc5F)[C@H]4C(=O)O)cc3)ccc2n1C (single isomer, unassigned) [Example 236] | 7940 | 
24 | 100 | Cc1nc2cc(S(=O)(=O)N(C)c3ccc([C@@H]4C[C@H](C#N)C[C@H](C(=O)Nc5ccc(C(F)(F)F)cc5F)[C@H]4C(=O)O)cc3)ccc2n1C (single isomer, unassigned) [Example 286] | 12600 | 
25 | 631 | Cc1nc2cc(S(=O)(=O)N(C)c3ccc([C@@H]4CCC[C@H](C(=O)Nc5ccc(C(F)(F)F)cc5F)[C@H]4C(=O)O)cc3F)ccc2n1C (single isomer, unassigned) [Example 369] | 12600 | 
26 | 100 | Cc1nc2cc(S(=O)(=O)N(C)c3ccc([C@H]4CCC[C@@H](C(=O)Nc5ccc(C(F)(F)F)cc5F)[C@@H]4C(=O)O)c(F)c3)ccc2n1C (single isomer, unassigned) [Example 375] |  | 4.7
27 | 631 | Cc1nc2cc(S(=O)(=O)N(C)c3ccc([C@@H]4C[C@H](OC(F)F)C[C@H](C(=O)Nc5ccc(C(F)(F)F)cc5F)[C@H]4C(=O)O)cc3)ccc2n1C (stereo in doubt) [Example 283, rel-(1R,2R,4R,6S)-4-(difluoromethoxy)-2-((2-fluoro-4-(trifluoromethyl)phenyl)carbamoyl)-6-(4-((N,1,2-trimethyl-1H-benzo[d]imidazole)-5-sulfonamido)phenyl)cyclohexane-1-carboxylic acid] | 20000 | 
28 | 31.6 | CC(=O)N(C)[C@@H]1C[C@H](C(=O)Nc2ccc(C(F)(F)F)cc2F)[C@@H](C(=O)O)[C@H](c2ccc(N(C)S(=O)(=O)c3ccc4c(c3)nc(C)n4C)cc2)C1 (stereo in doubt) [Example 291, rel-(1R,2R,4R,6S)-2-((2-fluoro-4-(trifluoromethyl)phenyl)carbamoyl)-4-(N-methylacetamido)-6-(4-((N,1,2-trimethyl-1H-benzo[d]imidazole)-5-sulfonamido)phenyl)cyclohexane-1-carboxylic acid] | 12600 | 
